Our source for the IC50 values is patent US20130150377A1, “Tetrahydropyridinyl and Dihydropyrrolyl Compounds and the Use Thereof” (SHIONOGI & CO., LTD., priority 2008, published 2013).

For the test, the target named is T1, N-type calcium channel (NTCC) (Homo sapiens, UniProt Q00975).
T1 construct: endogenous in cells; host or cells: differentiated IMR32 cells (ATCC)
T1 sequence (Q00975 whole entry): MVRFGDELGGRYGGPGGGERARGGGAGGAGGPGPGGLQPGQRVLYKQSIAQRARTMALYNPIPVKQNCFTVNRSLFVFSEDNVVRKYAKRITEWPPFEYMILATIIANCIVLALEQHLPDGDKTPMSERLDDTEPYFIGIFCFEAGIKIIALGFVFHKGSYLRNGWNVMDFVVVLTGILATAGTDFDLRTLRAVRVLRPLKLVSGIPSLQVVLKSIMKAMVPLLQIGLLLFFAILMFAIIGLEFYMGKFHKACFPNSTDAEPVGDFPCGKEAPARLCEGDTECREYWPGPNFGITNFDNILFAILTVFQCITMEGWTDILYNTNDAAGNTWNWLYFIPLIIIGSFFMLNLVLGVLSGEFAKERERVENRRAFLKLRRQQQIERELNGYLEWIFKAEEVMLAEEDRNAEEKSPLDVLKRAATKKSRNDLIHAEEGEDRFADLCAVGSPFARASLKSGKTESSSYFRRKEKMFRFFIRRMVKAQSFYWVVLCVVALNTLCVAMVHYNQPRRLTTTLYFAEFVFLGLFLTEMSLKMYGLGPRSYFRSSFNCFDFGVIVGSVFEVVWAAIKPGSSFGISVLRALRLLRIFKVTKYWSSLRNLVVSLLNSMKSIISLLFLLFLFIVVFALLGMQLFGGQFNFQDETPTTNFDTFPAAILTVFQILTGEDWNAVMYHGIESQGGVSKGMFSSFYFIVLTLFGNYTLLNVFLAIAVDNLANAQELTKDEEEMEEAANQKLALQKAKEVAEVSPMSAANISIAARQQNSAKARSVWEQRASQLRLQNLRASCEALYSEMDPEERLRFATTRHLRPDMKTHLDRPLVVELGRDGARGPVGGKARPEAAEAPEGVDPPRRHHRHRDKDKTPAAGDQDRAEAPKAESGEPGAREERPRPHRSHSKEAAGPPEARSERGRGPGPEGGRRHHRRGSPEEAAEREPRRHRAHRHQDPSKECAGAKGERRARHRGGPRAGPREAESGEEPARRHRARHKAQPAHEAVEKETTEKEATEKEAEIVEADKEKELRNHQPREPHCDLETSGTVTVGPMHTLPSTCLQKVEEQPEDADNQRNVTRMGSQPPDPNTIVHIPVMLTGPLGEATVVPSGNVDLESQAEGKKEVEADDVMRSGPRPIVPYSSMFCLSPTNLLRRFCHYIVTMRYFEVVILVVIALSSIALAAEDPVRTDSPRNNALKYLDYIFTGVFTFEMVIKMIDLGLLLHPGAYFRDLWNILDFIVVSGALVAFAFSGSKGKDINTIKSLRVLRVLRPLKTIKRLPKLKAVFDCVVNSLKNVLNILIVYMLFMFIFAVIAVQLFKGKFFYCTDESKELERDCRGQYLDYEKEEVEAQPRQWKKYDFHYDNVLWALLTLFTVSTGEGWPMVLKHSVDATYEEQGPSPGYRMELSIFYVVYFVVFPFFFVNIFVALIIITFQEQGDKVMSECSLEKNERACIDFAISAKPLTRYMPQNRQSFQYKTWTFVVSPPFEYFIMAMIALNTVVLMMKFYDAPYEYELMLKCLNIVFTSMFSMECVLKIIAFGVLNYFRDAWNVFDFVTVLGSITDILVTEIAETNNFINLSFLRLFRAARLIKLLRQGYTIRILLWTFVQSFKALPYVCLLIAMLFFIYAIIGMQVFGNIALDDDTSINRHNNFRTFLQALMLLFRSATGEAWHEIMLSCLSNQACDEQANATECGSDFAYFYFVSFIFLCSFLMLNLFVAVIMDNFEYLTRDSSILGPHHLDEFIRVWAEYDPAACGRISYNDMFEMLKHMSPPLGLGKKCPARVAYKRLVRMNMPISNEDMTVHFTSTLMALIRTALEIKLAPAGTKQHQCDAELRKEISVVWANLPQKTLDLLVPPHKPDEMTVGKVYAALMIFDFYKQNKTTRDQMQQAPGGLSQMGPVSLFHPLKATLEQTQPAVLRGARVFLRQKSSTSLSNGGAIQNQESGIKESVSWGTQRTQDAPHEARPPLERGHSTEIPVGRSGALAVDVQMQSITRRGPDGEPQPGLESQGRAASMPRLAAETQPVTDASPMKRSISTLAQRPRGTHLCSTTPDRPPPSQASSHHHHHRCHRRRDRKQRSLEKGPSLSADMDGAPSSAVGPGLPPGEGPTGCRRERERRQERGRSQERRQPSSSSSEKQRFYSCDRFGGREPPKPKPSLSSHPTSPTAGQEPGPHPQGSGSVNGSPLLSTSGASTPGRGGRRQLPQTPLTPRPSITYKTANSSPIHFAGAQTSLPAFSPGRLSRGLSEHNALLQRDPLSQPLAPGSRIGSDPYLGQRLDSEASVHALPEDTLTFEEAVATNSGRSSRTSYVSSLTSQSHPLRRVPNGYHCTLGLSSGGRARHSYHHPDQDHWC
T1 sequence (P54289 25-956 partner limits assumed): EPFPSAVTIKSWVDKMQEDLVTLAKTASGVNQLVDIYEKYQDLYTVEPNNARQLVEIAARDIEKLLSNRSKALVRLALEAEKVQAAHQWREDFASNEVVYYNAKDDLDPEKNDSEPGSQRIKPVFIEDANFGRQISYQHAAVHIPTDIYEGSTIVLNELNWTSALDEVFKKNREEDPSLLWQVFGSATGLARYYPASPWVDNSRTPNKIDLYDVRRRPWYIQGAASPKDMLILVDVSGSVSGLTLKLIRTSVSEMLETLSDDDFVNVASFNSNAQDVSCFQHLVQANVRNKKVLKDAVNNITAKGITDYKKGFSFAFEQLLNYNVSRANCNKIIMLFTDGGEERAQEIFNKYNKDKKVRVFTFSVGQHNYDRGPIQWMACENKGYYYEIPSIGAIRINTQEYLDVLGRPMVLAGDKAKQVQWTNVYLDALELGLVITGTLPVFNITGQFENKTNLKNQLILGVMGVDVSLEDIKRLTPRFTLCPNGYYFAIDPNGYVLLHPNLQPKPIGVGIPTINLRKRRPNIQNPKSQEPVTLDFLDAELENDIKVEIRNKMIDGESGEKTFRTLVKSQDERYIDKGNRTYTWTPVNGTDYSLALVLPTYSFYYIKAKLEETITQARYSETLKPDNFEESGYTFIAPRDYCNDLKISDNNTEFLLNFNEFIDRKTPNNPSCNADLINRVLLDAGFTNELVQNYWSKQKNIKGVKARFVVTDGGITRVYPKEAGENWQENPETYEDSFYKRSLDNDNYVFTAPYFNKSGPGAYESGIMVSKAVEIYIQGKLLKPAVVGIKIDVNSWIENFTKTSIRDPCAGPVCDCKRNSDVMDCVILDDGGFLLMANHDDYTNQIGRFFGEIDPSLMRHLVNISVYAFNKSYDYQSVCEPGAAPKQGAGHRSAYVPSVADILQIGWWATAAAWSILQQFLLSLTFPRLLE
T1 sequence (P54289 957-1103 partner limits assumed): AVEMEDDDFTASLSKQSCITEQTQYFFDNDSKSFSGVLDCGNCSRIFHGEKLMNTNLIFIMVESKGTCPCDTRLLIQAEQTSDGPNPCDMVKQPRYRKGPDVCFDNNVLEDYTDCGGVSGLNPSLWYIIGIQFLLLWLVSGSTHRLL
T1 sequence (P54284 whole entry partner): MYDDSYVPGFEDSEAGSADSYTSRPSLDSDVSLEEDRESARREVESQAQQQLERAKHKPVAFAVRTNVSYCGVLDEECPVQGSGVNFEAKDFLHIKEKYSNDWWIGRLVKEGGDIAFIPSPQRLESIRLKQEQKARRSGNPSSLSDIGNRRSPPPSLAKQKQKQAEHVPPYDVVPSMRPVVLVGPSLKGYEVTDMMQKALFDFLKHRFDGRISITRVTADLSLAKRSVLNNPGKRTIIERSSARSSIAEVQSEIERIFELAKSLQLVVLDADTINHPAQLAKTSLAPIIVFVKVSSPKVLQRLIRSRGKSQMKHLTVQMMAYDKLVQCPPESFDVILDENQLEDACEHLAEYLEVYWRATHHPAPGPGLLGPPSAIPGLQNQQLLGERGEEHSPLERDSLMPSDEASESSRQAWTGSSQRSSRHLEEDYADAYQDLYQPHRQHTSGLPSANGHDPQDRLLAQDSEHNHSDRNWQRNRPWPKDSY
Briefly: FLIPR calcium mobilization assay for N-type calcium channel (differentiated IMR32 cells). The test is classed as cell-based. The conditions noted are these: N-type calcium channel blockers, calcium mobilization in vitro assay. Here is the method:
Cell maintenance and differentiation. Unless noted otherwise, cell culture reagents were purchased from Mediatech of Herndon, Md. IMR32 cells (American Type Culture Collection, ATCC, Manassas, Va.) were routinely cultured in growth medium consisting of minimum essential medium containing 10% fetal bovine serum (FBS, Hyclone, Logan, Utah), 100 U/mL penicillin, 100 μg/mL streptomycin, 2 mM L-glutamine, 1 mM sodium pyruvate, and 1×MEM non-essential amino acids. 80-90% confluent flasks of cells were differentiated using the following differentiation medium: Growth medium plus 1 mM dibutyryl cyclic AMP (Sigma, St. Louis, Mo.), and 2.5 μM bromodeoxyuridine (Sigma). Cells were differentiated for 8 days by replacing differentiation medium every 2-3 days.
FLIPR Calcium Mobilization Assay for N-type Calcium Channel.
One day prior to performing this assay, differentiated IMR32 cells were treated with 1× CellStripper, and seeded on poly-D-lysine-coated 96-well clear-bottom black plates (Becton Dickinson, Franklin Lakes, N.J.) at 200,000 cells/well. On the day of the assay, the cell plates were washed with IMR32 buffer (127 mM NaCl, 1 mM KCl, 2 mM MgCl2, 700 μM NaH2PO4, 5 mM CaCl2, 5 mM NaHCO3, 8 mM HEPES, 10 mM glucose, pH 7.4), then pre-stimulated with KCl and loaded as follows: […] of IMR32 buffer, 0.05 mL of each compound tested diluted in IMR32 buffer containing 20 μM nitrendipine (Sigma), and 0.1 mL KCl dissolved in IMR32 buffer, plus Fluo-4 were added (3 μM final concentration, Molecular Probes, Eugene, Oreg.). Final test compound concentrations ranged from about 846 pM to about 17 μM, final nitrendipine concentration was 5 μM, and final KCl concentration was 90 mM. After 1 hour, the cells were washed twice with 0.05 mL of each compound tested in nitrendipine-containing IMR32 buffer (no KCl or Fluo-4), and then replaced with 0.1 mL of each compound tested in nitrendipine-containing IMR32 buffer. Plates were then transferred to a Fluorimetric Imaging Plate Reader (FLIPR^96, Molecular Devices, Inc., Sunnyvale, Calif.) for assay. The FLIPR measured basal Fluo-4 fluorescence for 315 seconds (i.e., 5 minutes and 15 seconds), then added 0.1 mL KCl agonist dissolved in IMR32 buffer and measured fluorescence for another 45 seconds. Final test compound concentrations on the cells after FLIPR read ranged from about 846 pM to about 17 μM, final nitrendipine concentration was 5 μM, and final KCl concentration was 90 mM. Data were collected over the entire time course and analyzed using Excel, Graph Pad Prism (version 3.02, Graph Pad, San Diego, Calif.), or an in-house non-linear regression analysis software.
A general note: Calcium flux is commonly read through the fluorescence of an indicator in the cells.
The term IC50 denotes the midpoint of a concentration-inhibition curve. With `O=C(NCC1CC1)c1ncccc1C1=CCN(S(=O)(=O)c2ccc(OC(F)(F)F)cc2)CC1` [1′-(4-Trifluoromethoxybenzenesulfonyl)-1′,2′,3′,6′-tetrahydro-[3,4′]bipyridinyl-2-carboxylic acid cyclopropylmethylamide], the concentration for half-maximal inhibition (IC50) is 690 nM.

As for `O=C(NC1CC1)c1cccc(C2=CCN(S(=O)(=O)c3ccc(C(F)(F)F)cc3)CC2)n1` [1′-(4-Trifluoromethylbenzenesulfonyl)-1′,2′,3′,6′-tetrahydro-[2,4′]bipyridinyl-6-carboxylic acid cyclopropylamide], the 50% inhibitory concentration (IC50) was found to be 110 nM.

Take `O=C(NC1CC1)c1cccc(C2=CCN(S(=O)(=O)c3ccccn3)CC2)n1` [1′-(Pyridin-2-ylsulfonyl)-1′,2′,3′,6′-tetrahydro-[2,4′]bipyridinyl-6-carboxylic acid cyclopropylamide]: the half-inhibitory concentration (IC50) is 9920 nM.

Take `O=C(NC1CC1)c1cccc(C2=CCN(S(=O)(=O)c3cccnc3)CC2)n1` [1′-(Pyridin-3-ylsulfonyl)-1′,2′,3′,6′-tetrahydro-[2,4′]bipyridinyl-6-carboxylic acid cyclopropylamide]: the half-inhibitory concentration (IC50) is 6180 nM.

As to `O=C(NC1CC1)c1cccc(C2=CCN(S(=O)(=O)c3ccsc3)CC2)n1` [1′-(Thiophen-3-ylsulfonyl)-1′,2′,3′,6′-tetrahydro-[2,4′]bipyridinyl-6-carboxylic acid cyclopropylamide], the IC50 amounted to 1050 nM.

`O=C(NC1CC1)c1cccc(C2=CCN(S(=O)(=O)C3CCCCC3)CC2)n1` [1′-Cyclohexylsulfonyl-1′,2′,3′,6′-tetrahydro-[2,4′]bipyridinyl-6-carboxylic acid cyclopropylamide]: the IC50 was determined as 320 nM.

On to `O=C(NC1CC1)c1cccc(C2=CCN(S(=O)(=O)C3CCCC3)CC2)n1` [1′-Cyclopentylsulfonyl-1′,2′,3′,6′-tetrahydro-[2,4′]bipyridinyl-6-carboxylic acid cyclopropylamide], for which the concentration for half-maximal inhibition (IC50) came to 2700 nM.

In the case of `CN(C)S(=O)(=O)N1CC=C(c2cccc(C(=O)NC3CC3)n2)CC1` [1′-Dimethylsulfamoyl-1′,2′,3′,6′-tetrahydro-[2,4′]bipyridinyl-6-carboxylic acid cyclopropylamide], the half-maximal inhibitory concentration (IC50) was > 20000 nM.

`NC(=O)c1ccnc(C2=CCN(S(=O)(=O)c3cccc(C(F)(F)F)c3)CC2)n1` [2-[1-(3-Trifluoromethylbenzenesulfonyl)-1,2,3,6-tetrahydropyridin-4-yl]-pyrimidine-4-carboxylic acid amide]: the IC50 was 360 nM.

For the compound `O=C(NCC1CC1)c1ccnc(C2=CCN(S(=O)(=O)c3cccc(C(F)(F)F)c3)CC2)n1` [2-[1-(3-Trifluoromethylbenzenesulfonyl)-1,2,3,6-tetrahydropyridin-4-yl]pyrimidine-4-carboxylic acid cyclopropylmethylamide], the IC50 worked out at 130 nM.

As to `O=C(NC1CC1)c1ccnc(C2=CCN(S(=O)(=O)c3ccc(OC(F)(F)F)cc3)CC2)n1` [2-[1-(4-Trifluoromethoxybenzenesulfonyl)-1,2,3,6-tetrahydropyridin-4-yl]pyrimidine-4-carboxylic acid cyclopropylamide], the 50% inhibitory concentration (IC50) turned out to be 240 nM.

For the compound `O=C(NC1CC1)c1nc(C2=CCN(S(=O)(=O)c3ccc(OC(F)(F)F)cc3)CC2)ccc1Cl` [5-Chloro-1′-(4-trifluoromethoxybenzenesulfonyl)-1′,2′,3′,6′-tetrahydro-[2,4′]bipyridinyl-6-carboxylic acid cyclopropylamide], the IC50 amounted to 490 nM.

As to `O=C(NC1CC1)c1cccc(C2=CCN(S(=O)(=O)c3cccc(C(F)(F)F)c3)CC2)n1` [Compound 7, 1′-(3-Trifluoromethylbenzenesulfonyl)-1′,2′,3′,6′-tetrahydro-[2,4′]bipyridinyl-6-carboxylic acid cyclopropylamide], the IC50 was 30 nM.

Regarding `NC(=O)c1ccnc(C2=CCN(S(=O)(=O)c3ccc(OC(F)(F)F)cc3)CC2)n1` [Compound 15, 2-[1-(4-Trifluoromethoxybenzenesulfonyl)-1,2,3,6-tetrahydropyridin-4-yl]-pyrimidine-4-carboxylic acid amide], the IC50 is > 20000 nM.

For the compound `COC(=O)c1cccc(C2=CCN(S(=O)(=O)c3cccc(C(F)(F)F)c3)CC2)n1` [Compound 25, 1′-(3-Trifluoromethylbenzenesulfonyl)-1′,2′,3′,6′-tetrahydro-[2,4′]bipyridinyl-6-carboxylic acid methyl ester], the IC50 came out at 920 nM.

As to `O=C(O)c1cccc(C2=CCN(S(=O)(=O)c3cccc(C(F)(F)F)c3)CC2)n1` [Compound 26, 1′-(3-Trifluoromethylbenzenesulfonyl)-1′,2′,3′,6′-tetrahydro-[2,4′]bipyridinyl-6-carboxylic acid], the half-maximal inhibitory concentration (IC50) is > 20000 nM.

As to `O=C(NCC1CC1)c1cccc(C2=CCN(S(=O)(=O)c3cccc(C(F)(F)F)c3)CC2)n1` [Compound 27, 1′-(3-Trifluoromethylbenzenesulfonyl)-1′,2′,3′,6′-tetrahydro-[2,4′]bipyridinyl-6-carboxylic acid cyclopropylmethylamide], the IC50 is 10 nM.

In the case of `NC(=O)c1cccc(C2=CCN(S(=O)(=O)c3cccc(C(F)(F)F)c3)CC2)n1` [Compound 28, 1′-(3-Trifluoromethylbenzenesulfonyl)-1′,2′,3′,6′-tetrahydro-[2,4′]bipyridinyl-6-carboxylic acid amide], the half-inhibitory concentration (IC50) is 590 nM.

Turning to `N#Cc1cccc(C2=CCN(S(=O)(=O)c3cccc(C(F)(F)F)c3)CC2)n1` [Compound 32, 1′-(3-Trifluoromethylbenzenesulfonyl)-1′,2′,3′,6′-tetrahydro-[2,4′]bipyridinyl-6-carbonitrile], the IC50 came to 1600 nM.

Take `N=C(NCC1CC1)c1cccc(C2=CCN(S(=O)(=O)c3ccc(OC(F)(F)F)cc3)CC2)n1` [Compound 34, N-Cyclopropylmethyl-1′-(4-trifluoromethoxybenzenesulfonyl)-1′,2′,3′,6′-tetrahydro-[2,4′]bipyridinyl-6-carboxamidine]: the IC50 amounted to 320 nM.

For the compound `O=C(NC1CC1)c1ccnc(C2=CCN(S(=O)(=O)c3cccc(C(F)(F)F)c3)CC2)n1` [Compound 39, 2-[1-(3-Trifluoromethylbenzenesulfonyl)-1,2,3,6-tetrahydropyridin-4-yl]pyrimidine-4-carboxylic acid cyclopropylamide], the IC50 stood at 60 nM.

On to `O=C(NC1CC1)c1nc(C2=CCN(S(=O)(=O)c3cccc(C(F)(F)F)c3)CC2)ccc1Cl` [Compound 44, 5-Chloro-1′-(3-trifluoromethylbenzenesulfonyl)-1′,2′,3′,6′-tetrahydro-[2,4′]bipyridinyl-6-carboxylic acid cyclopropylamide], for which the IC50 worked out at 60 nM.

For `O=C(NC1CC1)c1cccc(C2=CC3CCC(C2)N3S(=O)(=O)c2cccc(C(F)(F)F)c2)n1` (stereo not drawn) [Compound 55, 6-[8-(3-Trifluoromethylbenzenesulfonyl)-8-aza-bicyclo[3.2.1]oct-2-en-3-yl]pyridine-2-carboxylic acid cyclopropylamide], the IC50 was 50 nM.

`O=C(NC1CC1)c1coc(C2=CCN(S(=O)(=O)c3ccc(OC(F)(F)F)cc3)CC2)n1` [Compound 61, 2-[1-(4-Trifluoromethoxybenzenesulfonyl)-1,2,3,6-tetrahydropyridin-4-yl]oxazole-4-carboxylic acid cyclopropylamide]: the IC50 was determined as 320 nM.
